Data taken from ChEMBL document CHEMBL5678800 (Mol Cancer Ther, 2009).

Test system: Rh41
Experiment: Antiproliferative activity against human Rh41 cells assessed as inhibition of cell growth incubated for 72 hrs by 3H-thymidine incorporation assay
Assay type: functional, cell-based

## Cc1cc(Nc2cc(N3CCN(C)CC3)nc(Sc3ccc(NC(=O)C4CC4)cc3)n2)n[nH]1 [TOZASERTIB]
  IC50: 93 nM
